# From patent EP0330218B1, “Inhibitors of lysyl oxidase” (MERRELL DOW PHARMACEUTICALS INC., priority 1988, dated 1989)
# pIC50: −log10 of the molar value.
# Target: T1, Lysyl oxidase (Bos taurus, UniProt P33072)
# T1 construct: The supernatant with lysyl oxidase activity is saved; from tissue; host or cells: bovine aorta (4 M urea extract)
# T1 sequence (P33072 170-418): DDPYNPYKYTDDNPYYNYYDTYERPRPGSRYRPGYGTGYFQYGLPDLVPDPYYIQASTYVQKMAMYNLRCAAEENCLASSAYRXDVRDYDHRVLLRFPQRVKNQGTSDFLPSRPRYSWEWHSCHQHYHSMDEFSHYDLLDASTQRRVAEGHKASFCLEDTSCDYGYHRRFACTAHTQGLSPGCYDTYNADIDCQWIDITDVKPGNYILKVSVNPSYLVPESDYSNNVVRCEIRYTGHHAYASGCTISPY
# Test: Lysyl oxidase inhibition assay (fluorometric, cadaverine substrate, homovanillic acid/horseradish peroxidase)
# Format: biochemical
# Settings: lysyl oxidase preparation from bovine aorta, 10 minutes at 55°C, borate buffer pH = 8.2, read-out: IC₅₀
# Method: Lysyl oxidase preparation is obtained from bovine aorta by the procedures modified from M. A. Williams and H. M. Kagan, Anal. Biochem. 149, 430 - 437 (1985) and H. M. Kagan and K. A. Sullivan, Methods in Enzyml. 82, 637 - 650 (1982). The aorta is obtained fresh on the day of the enzyme preparation and is maintained at 4°C for the duration of its use in the experiments. The aorta is ground fine and is homogenized for 90 seconds in buffer (2.5 ml of a buffer consisting of 16 mM potassium phosphate and 1 mM phenylmethylsulfonyl fluoride/g of tissue) with 0.15 M NaCl added, then the mixture is centrifuged (20 minutes at 11,000 x g). The homogenization followed by centrifugation procedure is repeated with buffer plus 0.15 M NaCl, buffer alone, and buffer plus 1 M urea. After homogenization in 1 M urea, the mixture is stirred for 1 hour prior to centrifugation. The resulting pellet is homogenized in buffer plus 4 M urea, stirred for 18 hours, and centrifuged. The supernatant with lysyl oxidase activity is saved. The tissue is homogenized in buffer plus 4 M urea, stirred overnight, and centrifuged twice more. The supernatants with lysyl oxidase activity are saved.
# The assay is adopted from that of P. C. Trackman, et al., Anal. Biochem. 113, 336 - 342 (1981). Each assay consists of two tubes, one that contains 0.2 mM β-aminopropionitrile, BAPN, from the start and one to which BAPN is added to quench the reaction. Lysyl oxidase preparation (0.150 ml), urea (0.300 ml, 4 M), buffer (0.930 ml, 200mM borate at pH = 8.2), homovanillic acid (0.020 ml of 50 mM solution), and horseradish peroxidase (0.010 ml of Sigma Type II at 5 mg/ml protein) are incubated for 2 minutes at 55°C in a test tube. Cadaverine (0.100 ml of 150 mM) and test compound, if any, is added and the incubation continued at 55°C for an additional 10 minutes. The test tubes containing this mixture are then cooled in a ice bath after adding BAPN to any tubes not containing it. The difference in fluorescence (excitation 315 nm and emission 425 nm) between corresponding tubes that received BAPN at 0 minutes and at 10 minutes is a measure of enzyme activity. A standard curve to determine the amount of cadaverine converted by lysyl oxidase is prepared as follows. Assay mixtures containing BAPN are made up as described and known amounts of hydrogen peroxide are added simultaneously with cadaverine and the fluorescence changes after 10 minutes reaction are determined.
# Using this method the lysyl oxidase inhibiting activity expressed as IC₅₀ (inhibitory concentration), that is the concentration of test compound required to inhibit the enzyme activity by 50 per cent, was determined for various compounds of this invention.
row,pIC50,Structure (SMILES)
1,9.00,"NC/C(=C/F)COc1ccc(Cl)c(Cl)c1 [(Z)-2-(3,4-Dichlorophenoxymethyl)-3-fluoroallylamine]"
2,7.00,CC(C)C/C(=C\Cl)CN [(E)-2-Isobutyl-3-chloroallylamine]
3,8.00,CC(C)C/C(=C\F)CN [(E)-2-Isobutyl-3-fluoroallylamine]
4,9.00,NC/C(=C/F)c1cccs1 [(Z)-2-(2-Thienyl)-3-fluoroallylamine]
5,10.00,"COc1ccc(CCC/C(=C\F)CN)cc1OC [(E)-2-(3,4-Dimethoxyphenylpropyl)-3-fluoroallylamine]"
6,7.00,CCCCCCCCCCC/C(=C\F)CN [(E)-2-Undecyl-3-fluoroallylamine]
7,6.00,"CCNC/C(=C/F)c1ccc(OC)c(OC)c1 [(E)-N-Ethyl-2-(3,4-dimethoxyphenyl)-3-fluoroallylamine]"
8,7.00,NC/C(=C/Cl)c1ccccc1 [(E)-2-Phenyl-3-chloroallylamine]
9,7.00,"COc1ccc(/C(=C\F)CN)cc1OC [(E)-2-(3,4-Dimethoxyphenyl)-3-fluoroallylamine]"
10,10.00,NC/C(=C/F)CCc1ccc(F)cc1 [(E)-2-(4-Fluorophenethyl)-3-fluoroallylamine]
11,10.00,NC/C(=C\F)CSc1ccccc1 [(E)-2-(Thiophenoxymethyl)-3-fluoroallylamine]
12,8.00,NC/C(=C/Cl)CCc1ccccc1 [(E)-2-Phenethyl-3-chloroallylamine]
13,9.00,NC/C(=C/F)c1ccccc1 [(E)-2-Phenyl-3-fluoroallylamine]
